The record followed here is patent publication US11607419B2, “Inhibitors of RAC1 and uses thereof for inducing bronchodilatation” (INSTITUT NATIONAL DE LA SANTE ET DE LA RECHERCHE MEDICALE …, priority 2017, dated 2023).

What is called pIC50 is the negative decadic logarithm of the IC50, by convention in mol/L. High values mean a low IC50, low ones a high IC50. For orientation: melting point means the temperature, or range, at which the solid turns liquid.

pIC50: −log10 of the molar value. “Also recorded” adds a separate entry of the source. Where only a bound is given, the exact number is not on record here.

The target in one series is T1, Arf6 (Homo sapiens, UniProt P62330).
T1 construct: Full-length human small GTPases carrying a 6-histidine tag fused to their C-terminus; 6-histidine tag (C); made in house; host or cells: E. coli
Description: Nucleotide exchange assay, Arf6. The series is classed as biochemical. Conditions: 10 μM. From the text: (§1) Nucleotide exchange assays. Full-length human small GTPases carrying a 6-histidine tag fused to their C-terminus were expressed in E. coli and purified to homogeneity. Small GTPases were loaded with GDP or N-methylanthraniloyl-GDP (GDP/mant-GDP, JenaBiosciences) before nucleotide exchange kinetics experiments.
(§2) Nucleotide exchange kinetics were monitored by fluorescence of the mant fluorophore (λexc=360 nm, λem=440 nm) or tryptophan fluorescence (for Arf6; λexc=280 nm, λem=[…]) using a Cary Eclipse fluorimeter (Varian, Toulouse, France) at 30° C. under stirring. All kinetics assays were carried out in a buffer containing 50 mM Tris at pH 8, 300 mM NaCl, 2 mM MgCl2, 1 mM DTT and were started by addition of 100 μM N-methylanthraniloy-GTP or GTP (mant-GTP/GTP, JenaBiosciences). Nucleotide exchange kinetics were carried out at a concentration of small GTPases of 1 μM, either without GEF for spontaneous exchange, in the presence of 50 nM GEF for single kobs (s-1) determination. The kobs was determined from single-exponential fit of the fluorescence change. All experiments were carried out at least in triplicate.

Series [1] has as its target T2, RAC1 (Homo sapiens, UniProt P63000).
The target in another series is T3, RhoG (Homo sapiens, UniProt P84095).
T3 construct: Full-length human small GTPases carrying a 6-histidine tag fused to their C-terminus; 6-histidine tag (C); made in house; host or cells: E. coli
Kind of series: Nucleotide exchange assay, RhoG. The series is classed as biochemical. Conditions: 10 μM.
From the text: as §1, §2

A further series relates to fibroblast adhesion. Description: Cell adhesion assay using impedance technology. Format: cell-based. Conditions: fibroblasts; for adhesion rate of the cells: 10 μm. As for the experimental part: Cell adhesion assay using impedance technology. Cells (10000/well) were seeded in a 96 well plate microtiter xCELLigence assay plate (E-Plate) (ACEA Biosciences Inc.) and placed on the Real-time xCELLigence Cell Analyzer (Roche Applied Science) platform at 37° C. to measure the “cell index” every 5 min for a period of 6 hours. The cell index unit is defined as (Rn−Rb)/15. Rn is the cell electrode impedance of the well when it contains cells. Rb is the background impedance of the well with the media alone.

Another series concerns the target T4, Rab35 (Homo sapiens, UniProt Q15286).
T4 construct: Full-length human small GTPases carrying a 6-histidine tag fused to their C-terminus; 6-histidine tag (C); made in house; host or cells: E. coli
Description: Nucleotide exchange assay, Rab35. The series is classed as biochemical. Conditions: 10 μM.
From the text: as §1, §2

A further series concerns the target T5, Rac2 (Homo sapiens, UniProt P15153).
T5 construct: Full-length human small GTPases carrying a 6-histidine tag fused to their C-terminus; 6-histidine tag (C); made in house; host or cells: E. coli
Description: Nucleotide exchange assay (mant-GTP/mant-GDP), Rac2. The series is classed as biochemical. Conditions: 10 μM.
From the text: as §1, §2

Series [2] has as its system Rac1-dependent ruffle formation in NIH3T3 cells. Kind of series: Rac activator-induced membrane ruffling (actin staining) in fibroblasts. Format: cell-based. Conditions: for pIC50: fibroblasts, dose-dependent inhibition. How it is done:
(§3) Cell culture, transfection and actin staining. NIH3T3 cells grew up in DMEM (Gibco; Invitrogen) containing 10% foetal bovine serum, 100 units/mL penicillin and 100 μg/mL streptomycin at 37° C. and 5% CO2. The culture medium was changed every 72 hours.
After treatments, fibroblasts were fixed with 4% paraformaldehyde in PBS, permeabilized in PBS 0.5% Triton X-100, and incubated with 130 μg/mL of FITC-conjugated phalloidin (Sigma) to visualize F-actin. After staining, images were captured by a fluorescence microscope (Nikon). The actin cytoskeleton organization was analyzed to observe Rac1-dependent ruffle formation.

Another series concerns the target RhoA (Homo sapiens, UniProt P61586). Description: Nucleotide exchange assay, RhoA. Format: biochemical. Also noted: Full-length human small GTPases carrying a 6-histidine tag fused to their C-terminus; 6-histidine tag (C); made in house; host or cells: E. coli. Conditions: 10 μM.
From the text: as §1, §2

For series [3], the target named is T2, RAC1. Conditions: compared with NSC23766.
Series [4] relates to murine bronchial rings (aSMC contraction). Kind of series: Airways reactivity ex vivo: methacholine contraction of bronchial rings. Conditions: bronchial rings from control mice, pre-incubated 1 h. As for the experimental part:
Airways reactivity ex vivo. Murine primary bronchi were cleaned, cut in rings and mounted on a multichannel isometric myograph in Krebs-Henseleit physiological solution (118.4 mM NaCl, 4.7 mM KCl, 2 mM CaCl2, 1.2 mM MgSO4, 1.2 mM KH2PO4, 25 mM NaHCO3 and 11 mM glucose) at 37° C. under oxygen. A pre-tension of 0.5 mN was applied. We constructed dose-response curves to methacholine (Sigma). When indicated, rings were pre-incubated 1 h before contraction with (2) (or compound A4.1). The wire myograph was connected to a digital data recorder (MacLab/4e, AD Instruments) and recordings were analyzed using LabChart v7 software (AD Instruments).

The subject of a further series is 3T3 cells migration. Description: Unidirectional cell migration. The series is classed as cell-based. As for the experimental part: Unidirectional cell migration. Cells (1000/well) were seeded in a 96 well plate with […] fibronectin stripes (CytooPlates Motility, CYTOO) in medium with 1% SVF and allowed to spread for 4 hours before capturing time-lapse images for 24 hours (image/10 minutes) on a Widefield Leica DMI 6000B drove with Metamorph software. Cells speed was measured with ImageJ software.

The target in series [5] is T2, RAC1. Kind of series: Nucleotide exchange assay (mant-GTP/mant-GDP), Rac1. The series is classed as biochemical. Details: Full-length human small GTPases carrying a 6-histidine tag fused to their C-terminus; 6-histidine tag (C); made in house; host or cells: E. coli. Conditions: 10 μM.
From the text: as §1, §2

For series [6], the target named is T2, RAC1. Description: Surface plasmon resonance on immobilised Rac1. The series is classed as binding. How it is done:
Surface plasmon resonance studies. SPR immobilization was performed at 25° C. Rac1, RhoA and Cdc42 purified proteins were diluted to 5 μg/mL in Na^+ acetate buffer (pH 5.0) and injected into sensor chip CM5 (GE Healthcare) in a Biacore T200 (GE Healthcare) that was activated with NHS/EDC buffer. Approximately 5,000 response units of the purified protein were captured on the biosensor chip. Biosensor chips were blocked by an injection of […] ethanolamine (pH 8.5). […] SPR analysis was performed at 25° C. in HBSEP running buffer (5% DMSO). When indicated, EDTA (20 mM) was added in running buffer.
(In SPR one partner is held on a chip, and binding of the other changes the refractive index at the surface.)

For series [7], the target named is T6, Rac-GTP (Rac1 activity) in NIH3T3 cells (Mus musculus, UniProt P63001).
T6 construct: endogenous in cells; host or cells: NIH3T3
Kind of series: Rac activation: active Rac immunoprecipitation and immunoblot of Rac-GTP in fibroblasts stimulated by a Rac activator. Conditions: pre-incubated 1 h. The series is classed as cell-based. How it is done: as §3
Analysis of Rac1 activity. In NIH3T3 cells lysates, Rac1 activity was evaluated by active Rac immunoprecipitation using anti-Rac-GTP antibody (26903, NewEast Biosciences). The precipitated active Rac was subjected to SDS-PAGE and detected by immunoblot with anti-Rac1 antibody (BD biosciences).

The subject of series [8] is airway hyperresponsiveness. Kind of series: Airway responsiveness in vivo (whole-body plethysmography, methacholine). Also noted: species or system mice. Conditions: mouse model of allergic asthma, acute nebulization (300 μl at 5 mM) 10 min before methacholine. How it is done: Animals use and airways responsiveness measurement in vivo. All experimental procedures and animal care were performed in accordance with the European Community Standards on the Care and Use of Laboratory Animals and approved by the local ethics committee (Comité d'Ethique en Expérimentation Animale des Pays de Loire). Airway responsiveness was assessed in conscious, unrestrained mice using a barometric, whole-body plethysmography (EMKA Technologies) by recording respiratory pressure curves in response to inhaled methacholine (Sigma) at concentrations of 0-40 mg/ml for 1 min. Airway responsiveness was expressed in enhanced pause (Penh) units. The Penh values measured after stimulation were averaged and expressed as the fold-increase over baseline values. When required, the Rac inhibitor (2) was nebulised (300 μl at 5 mM) 10 min before methacholine challenge.

T3 sequence (P84095 whole entry, the tested form may be a part): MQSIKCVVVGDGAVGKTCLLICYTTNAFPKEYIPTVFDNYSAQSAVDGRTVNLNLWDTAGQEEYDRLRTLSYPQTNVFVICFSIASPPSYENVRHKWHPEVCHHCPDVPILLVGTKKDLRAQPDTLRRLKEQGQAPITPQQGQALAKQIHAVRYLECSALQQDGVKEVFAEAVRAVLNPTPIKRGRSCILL
RhoA, sequence (P61586 whole entry, the tested form may be a part): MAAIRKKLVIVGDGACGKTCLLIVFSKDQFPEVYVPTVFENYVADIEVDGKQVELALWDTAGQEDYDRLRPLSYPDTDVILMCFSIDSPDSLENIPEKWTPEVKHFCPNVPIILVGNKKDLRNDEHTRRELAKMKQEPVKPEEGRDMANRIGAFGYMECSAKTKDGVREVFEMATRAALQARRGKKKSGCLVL
T1 sequence (P62330 whole entry, the tested form may be a part): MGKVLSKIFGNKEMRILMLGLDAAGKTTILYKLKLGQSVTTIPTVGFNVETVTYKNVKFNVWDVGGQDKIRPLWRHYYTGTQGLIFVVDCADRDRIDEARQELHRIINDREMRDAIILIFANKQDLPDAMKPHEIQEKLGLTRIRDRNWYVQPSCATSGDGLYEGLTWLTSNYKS
T4 sequence (Q15286 whole entry, the tested form may be a part): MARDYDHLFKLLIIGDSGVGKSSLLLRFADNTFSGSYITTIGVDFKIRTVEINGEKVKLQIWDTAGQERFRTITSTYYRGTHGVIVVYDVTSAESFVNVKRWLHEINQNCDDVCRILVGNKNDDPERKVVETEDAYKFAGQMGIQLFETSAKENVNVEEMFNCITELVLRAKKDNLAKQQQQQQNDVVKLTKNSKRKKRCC

In turn, `COc1ccc(OC)c(NS(=O)(=O)c2ccc(NC(=O)CCSc3ccc(C)cc3)cc2)c1` [Compound (2), N-(4-(N-(2,5-dimethoxyphenyl)sulfamoyl)phenyl)-3-(p-tolylthio)propanamide] came in with a melting point of 136 °C. For the same molecule, the “nucleotide exchange kinetics of Arf6” value on Arf6 is reported as “did not alter”. In addition, the pIC50 at RAC1 [1] is 9.00. The “nucleotide exchange kinetics of RhoG” value at RhoG is “did not alter”. Further, in the series with fibroblast adhesion, the “adhesion inhibition compared with NSC23766” value is given as “higher inhibition” and the “adhesion rate of the cells” value is “decreases; also recorded: slow down”. Further, the “nucleotide exchange kinetics of Rab35” value on Rab35 was “did not alter”. Also, the “Bmax GTP-binding on Rac2” value at Rac2 was “decreased”. The molecule further gave a pIC50 in [2] (Mus musculus, NIH3T3) of 9.17. Moreover, in series [2] (added 1 h before Rac activation), the “efficiency of Rac activator to induce ruffle” value is reported as “blocks; also recorded: strongly decreased”. Also, the “nucleotide exchange kinetics of RhoA” value on RhoA was “did not alter”. The “Relative activity (NSC23766)” value on RAC1 [3] was “>”. Further, in series [4], the “maximal contraction induced by methacholine” value is given as “dose-dependent reduced”. Besides, in the series with 3T3 cells migration, the “migration inhibition compared with NSC23766” value is reported as “higher inhibition” and the “migration rate of the cells” value is “decreases; also recorded: slow down”. For the same molecule, the “Bmax GTP-binding on Rac1” value on RAC1 [5] is “decreased”. In addition, the “SPR binding to Rac1” value at RAC1 [6] (0.78-25 μM injected) is “binds Rac1”. In addition, the “SPR interaction with Rac1 nucleotide free” value on RAC1 [6] (EDTA in running buffer) was “significantly increased”. For the same molecule, the “Rac activation (Rac-GTP level) by a Rac activator” value in [7] is on record as “prevented”. Besides, in [8], the “airway hyperresponsiveness (AHR)” value was “prevented”.
Take `CCN(CC)CCCC(C)Nc1nc(C)cc(Nc2ccc3nc(C)cc(N)c3c2)n1` (centres unmarked) [NSC23766, reference compound]: the “adhesion rate of the cells” value with fibroblast adhesion is “slow down”. Besides, the pIC50 in [2] was 5.59. The “Rac activation (Rac-GTP level) by a Rac activator” value in [7] is “prevented”.
